Experimental data as given in US20080069896A1, “Antitumor Composition” (Kabushiki Kaisha Sangi, priority 2004, published 2008).
Like-named read-outs stand apart in the source and are kept apart here.

Columns and labels:
[1] = tested on: human lung cancer cell Lu65; assay: MTT assay, human lung cancer cell Lu65; type: cell-based
Procedure: (§1) Effect of platinum tetrachloride/hydroxyapatite (PtCl4/HAP) and hexachloroplatinate/hydroxyapatite (H2PtCl6/HAP) against human cancer cells (MTT assay)
(§2) According to “in vitro toxicity test using MTT”, which is an ordinary test method, MTT assay was performed for PtCl4/HAP (particle diameter 0.1 μm or less), and H2PtCl6/HAP (particle diameter 0.1 μm or less) by using 19 types of human cancer cells. PtCl4/HAP and H2PtCl6/HAP were used by adjusting the final dispersion concentration to 1.0% in a dispersion liquid each containing 10% platinum as a theoretical value. For comparison, MTT assay was performed for PtCl4 and CDDP. PtCl4 was dissolved at an adequate dose, and then used after serial dilution with PBS (−). For CDDP, injection liquid from Malco was used.

[2] = tested on: human lung cancer cell Lu99; assay: MTT assay, human lung cancer cell Lu99; type: cell-based
Procedure: as §1, §2

[3] = tested on: fibroblasts at confluency; assay: Microscopic observation of toxicity effect during resting stage; type: cell-based, rat
Description: A male mature rat was deeply anesthetized with ether, and disinfected by wiping carefully its tail with alcohol. The tail end part was cut by several centimeters, and the skin was removed from coccyx. Tendon was attached to the coccyx, and by culturing the same, fibroblasts can be recovered. Coccyx part was further cut finely with a sterilized pair of scissors, and adhered on a sterilized plastic plate with the cut surface down. After resting the plate for a while, DMEM supplemented with 10% FBS was added thereto. In approximately one week, fibroblasts germinated from the coccyx part, and proliferated in the plate. The fibroblasts collected from rat tail end were used for the following experiment.
From the result of Example 7, 2 ppm which is a value of platinum content that kills 50% of fibroblasts in CDDP during resting stage was set as a standard. Then, CDDP, PtCl4/HAP, PtCl4 and HAP dispersion liquids in an amount corresponding to 2 ppm of platinum content, were added to the fibroblasts at confluency in a medium, and cultured for 48 hours.

[4] = Lu65, platinum compound without hydroxyapatite, for comparison
[5] = Lu99, platinum compound without hydroxyapatite, for comparison

| Compound | IC50 of human lung cancer cells by MTT assay [1, 4] [ppm] | Platinum content calculated from IC50 of human lung cancer cell by MTT assay [1, 4] [ppm] | IC50 of human lung cancer cells by MTT assay [2, 5] [ppm] | Platinum content calculated from IC50 of human lung cancer cell by MTT assay [2, 5] [ppm] | Microscopic observation of cell form of cultured fibroblasts [3] | also measured |
| --- | --- | --- | --- | --- | --- | --- |
| [Cl][Pt-2]([Cl])([Cl])[Cl].[K+].[K+] [K2PtCl4, dipotassium platinum tetrachloride] | 58.2 | 27.4 | 12.1 | 5.7 | – | – |
| [Cl][Pt-2]([Cl])([Cl])[Cl] [H2PtCl4, tetrachloroplatinate] | 8.8 | 5.1 | 9.1 | – | – | – |
| [Cl][Pt-2]([Cl])([Cl])([Cl])([Cl])[Cl].[H+].[H+] [H2PtCl6, hexachloroplatinate] | – | – | – | – | – | IC50 of human lung cancer cells by MTT assay [1]: 11.1 ppm; Platinum content calculated from IC50 of human lung cancer cell by MTT assay [1]: 5.3 ppm; IC50 of human lung cancer cells by MTT assay [2]: 7.2 ppm; Platinum content calculated from IC50 of human lung cancer cell by MTT assay [2]: 3.4 ppm |
| platinum tetrachloride/hydroxyapatite [PtCl4/HAP] | – | – | – | – | fibroblasts did not lose their original form | – |
| Hydroxyapatite [HAP] | – | – | – | – | almost no abnormality was observed | – |
| [Cl][Pt-2]([Cl])([Cl])[Cl].[Na+].[Na+] [Na2PtCl4, disodium platinum tetrachloride] | 8.8 | 4.5 | 9.2 | 4.7 | – | – |
